Assays:
bedstraw = assay: Test B pre/postemergence bedstraw; format: in vivo, Galium aparine
How it was run: (§1)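 Response is a visual 0-to-10 score relative to untreated plants, where 0 means no effect and 10 means complete control, taken twelve to sixteen days after application. Treatments went onto soil at planting and onto foliage of 1- to 4-leaf plants, using a surfactant-containing non-phytotoxic solvent.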

blackgrass = assay: Test B pre/postemergence blackgrass; format: in vivo, Alopecurus myosuroides
How it was run: as §1

surinam grass = assay: Test B pre/postemergence surinam grass; format: in vivo, Brachiaria decumbens
How it was run: as §1

cocklebur = assay: Test B pre/postemergence cocklebur; format: in vivo, Xanthium strumarium
How it was run: as §1

corn = assay: Test B pre/postemergence corn; format: in vivo, Zea mays
How it was run: as §1

giant foxtail = assay: Test B pre/postemergence giant foxtail; format: in vivo, Setaria faberii
How it was run: as §1

morningglory = assay: Test B pre/postemergence morningglory; format: in vivo, Ipomoea hederacea
How it was run: as §1

pigweed = assay: Test B pre/postemergence pigweed; format: in vivo, Amaranthus retroflexus
How it was run: as §1

rape = assay: Test B pre/postemergence rape; format: in vivo, Brassica napus
How it was run: as §1

sugar beet = assay: Test B pre/postemergence sugar beet; format: in vivo, Beta vulgaris; settings: for Plant response rating, Sugarbeets: Rate 250 g/ha
How it was run: as §1

velvetleaf = assay: Test B pre/postemergence velvetleaf; format: in vivo, Abutilon theophrasti; settings: for Plant response rating, Velvetleaf: Rate 250 g/ha
How it was run: as §1

purple nutsedge = assay: Test B pre/postemergence purple nutsedge; format: in vivo, Cyperus rotundus
How it was run: as §1

rice = assay: Test B flood test rice; format: in vivo, Oryza sativa
How it was run: (§2)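 Each value is a visual injury score relative to controls, with 10 meaning complete control and 0 no effect. Evaluation took place twelve to sixteen days after the 2-leaf-stage plants were treated and kept in the greenhouse.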

duck salad = assay: Test B flood test duck salad; format: in vivo, Heteranthera limosa
How it was run: as §2

bamyardgrass = assay: Test B flood test barnyardgrass; format: in vivo, Echinochloa crus-galli
How it was run: as §2

[1] = Postemergence, Rate 62 g/ha, scale 0 to 10, 0 is no effect, 10 is complete control
[2] = Postemergence, Rate 250 g/ha, scale 0 to 10, 0 no effect, 10 complete control
[3] = Preemergence, Rate 62 g/ha, scale 0 to 10 (0 no effect, 10 complete control)
[4] = Preemergence, Rate 125 g/ha, scale 0 to 10 (0 no effect, 10 complete control)
[5] = Preemergence, Rate 250 g/ha, scale of 0 to 10 where 0 is no effect and 10 is complete control
[6] = Preemergence, Rate 500 g/ha, scale 0 to 10 (0 no effect, 10 complete control)
[7] = Rate 125 g/ha, Postemergence, scale 0 to 10, 0 no effect, 10 complete control
[8] = Postemergence, Rate 125 g/ha, scale of 0 to 10 where 0 is no effect and 10 is complete control
[9] = Rate 62 g/ha, Postemergence, scale of 0 to 10 where 0 is no effect and 10 is complete control
[10] = Rate 500 g/ha, Postemergence, scale 0 to 10, 0 no effect, 10 complete control
[11] = Preemergence, Rate 125 g/ha, 0 is no effect, 10 is complete control
[12] = Preemergence, scale of 0 to 10 where 0 is no effect and 10 is complete control
[13] = Postemergence, scale 0 to 10, 0 is no effect, 10 is complete control
[14] = Postemergence (flood test species), Rate 125 g/ha, scale of 0 to 10 where 0 is no effect and 10 is complete control
[15] = Rate 62 g/ha, Postemergence section, flood test species, scale of 0 to 10 where 0 is no effect and 10 is complete control
[16] = Rate 500 g/ha, listed under Postemergence (flood test species), scale 0 to 10, 0 no effect, 10 complete control
[17] = flood test, listed under Postemergence, Rate 250 g/ha, scale 0 to 10, 0 no effect, 10 complete control

CC(C)N(C(=O)n1oc(=O)n(C2CCCCC2)c1=O)c1ccc(F)cc1F [Compound 115]
Bedstraw plant response rating (bedstraw; [1]): 0
Bedstraw plant response rating (bedstraw; [2]): 4
Bedstraw plant response rating (bedstraw; [3]): 0
Plant response rating, Bedstraw (bedstraw; [4]): 0
Plant response rating, Bedstraw (bedstraw; [5]): 0
Bedstraw plant response rating (bedstraw; [6]): 0
Bedstraw plant response rating (bedstraw; [7]): 0
Blackgrass plant response rating (blackgrass; [8]): 4
Blackgrass plant response rating (blackgrass; [2]): 6
Blackgrass plant response rating (blackgrass; [3]): 0
Plant response rating, Blackgrass (blackgrass; [4]): 0
Plant response rating, Blackgrass (blackgrass; [5]): 0
Blackgrass plant response rating (blackgrass; [6]): 6
Blackgrass plant response rating (blackgrass; [9]): 4
Blackgrass plant response rating (blackgrass; [10]): 7
B. signalgrass plant response rating (surinam grass; [1]): 0
B. signalgrass plant response rating (surinam grass; [2]): 0
B. signalgrass plant response rating (surinam grass; [3]): 2
Plant response rating, B. signalgrass (surinam grass; [4]): 2
Plant response rating, B. signalgrass (surinam grass; [5]): 4
B. signalgrass plant response rating (surinam grass; [6]): 10
B. signalgrass plant response rating (surinam grass; [7]): 0
B. signalgrass plant response rating (surinam grass; Rate 500 g/ha, Postemergence, scale of 0 to 10 where 0 is no effect and 10 is complete control): 8
Cocklebur plant response rating (cocklebur; [8]): 0
Cocklebur plant response rating (cocklebur; [2]): 1
Cocklebur plant response rating (cocklebur; [3]): 0
Plant response rating, Cocklebur (cocklebur; [4]): 0
Plant response rating, Cocklebur (cocklebur; [5]): 0
Cocklebur plant response rating (cocklebur; [6]): 0
Cocklebur plant response rating (cocklebur; [9]): 0
Cocklebur plant response rating (cocklebur; [10]): 2
Corn plant response rating (corn; [8]): 0
Corn plant response rating (corn; [2]): 0
Corn plant response rating (corn; [3]): 0
Plant response rating, Corn (corn; [4]): 0
Plant response rating, Corn (corn; [5]): 0
Corn plant response rating (corn; [6]): 0
Corn plant response rating (corn; [9]): 0
Corn plant response rating (corn; [10]): 0
Giant foxtail plant response rating (giant foxtail; [8]): 4
Giant foxtail plant response rating (giant foxtail; [2]): 5
Giant foxtail plant response rating (giant foxtail; [3]): 9
Plant response rating, Giant foxtail (giant foxtail; [4]): 9
Plant response rating, Giant foxtail (giant foxtail; [5]): 9
Giant foxtail plant response rating (giant foxtail; [6]): 10
Giant foxtail plant response rating (giant foxtail; [9]): 0
Giant foxtail plant response rating (giant foxtail; [10]): 9
Morningglory plant response rating (morningglory; [8]): 3
Morningglory plant response rating (morningglory; [2]): 6
Morningglory plant response rating (morningglory; [3]): 0
Plant response rating, Morningglory (morningglory; [4]): 0
Plant response rating, Morningglory (morningglory; [5]): 0
Morningglory plant response rating (morningglory; [6]): 0
Morningglory plant response rating (morningglory; [9]): 3
Morningglory plant response rating (morningglory; [10]): 6
Redroot pigweed plant response rating (pigweed; [8]): 0
Redroot pigweed plant response rating (pigweed; [3]): 5
Plant response rating, Redroot pigweed (pigweed; [4]): 5
Plant response rating, Redroot pigweed (pigweed; [5]): 6
Redroot pigweed plant response rating (pigweed; [6]): 8
Redroot pigweed plant response rating (pigweed; [9]): 0
Plant response rating, Redroot pigweed (pigweed; Rate 250 g/ha, Postemergence, scale 0 to 10, 0 is no effect, 10 is complete control): 0
Redroot pigweed plant response rating (pigweed; [10]): 4
Rape plant response rating (rape; [8]): 0
Rape plant response rating (rape; [2]): 0
Rape plant response rating (rape; [3]): 0
Plant response rating, Rape (rape; [4]): 0
Plant response rating, Rape (rape; [5]): 0
Rape plant response rating (rape; [6]): 5
Rape plant response rating (rape; [9]): 0
Rape plant response rating (rape; [10]): 0
Sugarbeets plant response rating (sugar beet; [8]): 3
Sugarbeets plant response rating (sugar beet; [3]): 0
Sugarbeets plant response rating (0 to 10 scale) (sugar beet; [11]): 0
Plant response rating, Sugarbeets (sugar beet; [12]): 0
Sugarbeets plant response rating (sugar beet; [6]): 5
Sugarbeets plant response rating (sugar beet; [9]): 2
Plant response rating, Sugarbeets (sugar beet; [13]): 3
Sugarbeets plant response rating (sugar beet; [10]): 3
Velvetleaf plant response rating (velvetleaf; [8]): 0
Velvetleaf plant response rating (velvetleaf; [3]): 0
Velvetleaf plant response rating (0 to 10 scale) (velvetleaf; [11]): 0
Plant response rating, Velvetleaf (velvetleaf; [12]): 2
Velvetleaf plant response rating (velvetleaf; [6]): 2
Velvetleaf plant response rating (velvetleaf; [9]): 0
Plant response rating, Velvetleaf (velvetleaf; [13]): 0
Velvetleaf plant response rating (velvetleaf; [10]): 0
Nutsedge plant response rating (purple nutsedge; [8]): 0
Nutsedge plant response rating (purple nutsedge; [2]): 0
Nutsedge plant response rating (purple nutsedge; [3]): 0
Plant response rating, Nutsedge (purple nutsedge; [4]): 0
Plant response rating, Nutsedge (purple nutsedge; [5]): 0
Nutsedge plant response rating (purple nutsedge; [6]): 0
Nutsedge plant response rating (purple nutsedge; [9]): 0
Nutsedge plant response rating (purple nutsedge; [10]): 0
Rice plant response rating (rice; [14]): 0
Rice plant response rating (rice; [15]): 0
Plant response rating, Rice (rice; Rate 250 g/ha, Postemergence (flood test), scale 0 to 10, 0 is no effect, 10 is complete control): 0
Rice plant response rating (rice; [16]): 0
Ducksalad plant response rating (duck salad; [14]): 0
Ducksalad plant response rating (duck salad; [15]): 0
Ducksalad plant response rating (duck salad; [16]): 0
Ducksalad plant response rating (duck salad; [17]): 0
Barnyardgrass plant response rating (bamyardgrass; [1]): 0
Barnyardgrass plant response rating (bamyardgrass; Rate 125 g/ha, Postemergence section (flood test species), scale 0 to 10, 0 no effect, 10 complete control): 0
Barnyardgrass plant response rating (bamyardgrass; [16]): 0
Barnyardgrass plant response rating (bamyardgrass; [17]): 0

— patent US6737383B1, “Herbicidal oxadiazolidines” (priority 1999, dated 2004)
